According to patent US6683027B2, “Herbicidal mixtures” (BASF Aktienegesellschaft, priority 2000, dated 2004):

Columns and labels:
Assay in all cases: greenhouse pre-emergence trial, percent damage vs untreated control 21 days after treatment
Type in all cases: in vivo
Matricaria inodora = details: MATIN, Example 2
Papaver rhoeas = details: PAPRH, Example 2
Lolium perenne = details: 15 g/ha, LOLPE, Example 2
Stellaria media = details: 30 g/ha, STEME, Example 2
Veronica persica = details: VERPE, Example 2
Galium aparine = details: GALAP, Example 2

CC(C)N(C(=O)COc1nnc(C(F)(F)F)s1)c1ccc(F)cc1 [flufenacet]
flufenacet alone (% control) (Matricaria inodora; 15 g/ha): 0% | flufenacet alone (% control) (Matricaria inodora; 30 g/ha): 0% | flufenacet alone (% control) (Papaver rhoeas; 15 g/ha): 0% | flufenacet alone (% control) (Papaver rhoeas; 30 g/ha): 0% | flufenacet alone (% control) (Papaver rhoeas; 60 g/ha): 0% | flufenacet alone (% control) (Lolium perenne): 30% | flufenacet alone (% control) (Stellaria media): 0% | flufenacet alone (% control) (Veronica persica; 15 g/ha): 0% | flufenacet alone (% control) (Veronica persica; 30 g/ha): 10% | flufenacet alone (% control) (Veronica persica; 60 g/ha): 10% | flufenacet alone (% control) (Galium aparine; 15 g/ha): 0% | flufenacet alone (% control) (Galium aparine; 30 g/ha): 10% | flufenacet alone (% control) (Galium aparine; 60 g/ha): 55%
